Measurements: ChEMBL document CHEMBL1909046, “DrugMatrix in vitro pharmacology data”

Test system: not listed separately
Assay: DRUGMATRIX: Glutamate, NMDA, Phencyclidine radioligand binding (ligand: [3H] TCP)
Type: cell membranes, Rattus norvegicus, Wistar, Cerebral cortex, Membrane
Settings: Not Active = under 50% inhibition at 10 µM

Structure (SMILES)	IC50	Ki
CC(C)(Oc1ccc(CCNC(=O)c2ccc(Cl)cc2)cc1)C(=O)O [BEZAFIBRATE]	Not Active	Not Active
CC(C)n1c(/C=C/C(O)CC(O)CC(=O)O)c(-c2ccc(F)cc2)c2ccccc21 (centres undefined) [FLUVASTATIN]	Not Active	Not Active
CCCCOC(=O)c1ccc(N)cc1 [BUTAMBEN]	Not Active	Not Active
Cc1ccccc1N1CCN(CCc2nnc3n2CCCC3)CC1 [DAPIPRAZOLE]	Not Active	Not Active

Molecular target: T1, 3-hydroxy-3-methylglutaryl-coenzyme A reductase (Homo sapiens, UniProt P04035);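 note: enzyme inhibition assay of HMG-CoA reductase using radiolabeled [14C]HMG-CoA as substrate; in other assays of this panel Not Active means under 50% inhibition at 10 µM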
T1 sequence (P04035 whole entry): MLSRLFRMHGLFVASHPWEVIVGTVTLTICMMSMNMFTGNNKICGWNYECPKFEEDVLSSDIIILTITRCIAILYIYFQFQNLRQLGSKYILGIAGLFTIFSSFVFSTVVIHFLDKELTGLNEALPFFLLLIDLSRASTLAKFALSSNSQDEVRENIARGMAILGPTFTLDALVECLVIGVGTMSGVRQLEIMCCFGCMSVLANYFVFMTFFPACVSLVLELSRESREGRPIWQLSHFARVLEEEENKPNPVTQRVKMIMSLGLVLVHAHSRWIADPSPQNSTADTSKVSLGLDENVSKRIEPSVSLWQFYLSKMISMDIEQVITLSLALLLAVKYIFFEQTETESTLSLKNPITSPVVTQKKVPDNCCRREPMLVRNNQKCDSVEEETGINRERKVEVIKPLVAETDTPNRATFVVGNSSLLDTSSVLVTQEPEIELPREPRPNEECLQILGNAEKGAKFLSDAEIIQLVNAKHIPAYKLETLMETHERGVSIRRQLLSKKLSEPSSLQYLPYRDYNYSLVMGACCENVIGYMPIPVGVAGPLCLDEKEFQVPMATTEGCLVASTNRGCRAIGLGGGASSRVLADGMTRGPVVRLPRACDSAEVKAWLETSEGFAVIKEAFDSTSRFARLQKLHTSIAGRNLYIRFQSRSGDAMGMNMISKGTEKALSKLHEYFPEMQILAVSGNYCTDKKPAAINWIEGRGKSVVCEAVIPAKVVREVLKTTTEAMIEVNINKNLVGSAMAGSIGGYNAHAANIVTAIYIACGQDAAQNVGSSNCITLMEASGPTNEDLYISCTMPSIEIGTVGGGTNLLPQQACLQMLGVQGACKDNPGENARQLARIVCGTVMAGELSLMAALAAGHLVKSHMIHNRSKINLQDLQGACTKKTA
Assay: not given
Design: species or system Escherichia coli
Settings: not given

Structure (SMILES)	IC50
CC(C)(Oc1ccc(CCNC(=O)c2ccc(Cl)cc2)cc1)C(=O)O [BEZAFIBRATE]	Not Active
CCCCOC(=O)c1ccc(N)cc1 [BUTAMBEN]	Not Active
Cc1ccccc1N1CCN(CCc2nnc3n2CCCC3)CC1 [DAPIPRAZOLE]	Not Active

Same assay, conditions: read-out: IC50

Structure (SMILES)	IC50 [nM]
CC(C)n1c(/C=C/C(O)CC(O)CC(=O)O)c(-c2ccc(F)cc2)c2ccccc21 (centres undefined) [FLUVASTATIN]	0.353

Molecular target: T2, Interstitial collagenase (Homo sapiens, UniProt P03956);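 note: MMP-1 enzyme inhibition assay using a peptide substrate; in other assays of this panel Not Active means under 50% inhibition at 10 µM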
T2 sequence (P03956 whole entry): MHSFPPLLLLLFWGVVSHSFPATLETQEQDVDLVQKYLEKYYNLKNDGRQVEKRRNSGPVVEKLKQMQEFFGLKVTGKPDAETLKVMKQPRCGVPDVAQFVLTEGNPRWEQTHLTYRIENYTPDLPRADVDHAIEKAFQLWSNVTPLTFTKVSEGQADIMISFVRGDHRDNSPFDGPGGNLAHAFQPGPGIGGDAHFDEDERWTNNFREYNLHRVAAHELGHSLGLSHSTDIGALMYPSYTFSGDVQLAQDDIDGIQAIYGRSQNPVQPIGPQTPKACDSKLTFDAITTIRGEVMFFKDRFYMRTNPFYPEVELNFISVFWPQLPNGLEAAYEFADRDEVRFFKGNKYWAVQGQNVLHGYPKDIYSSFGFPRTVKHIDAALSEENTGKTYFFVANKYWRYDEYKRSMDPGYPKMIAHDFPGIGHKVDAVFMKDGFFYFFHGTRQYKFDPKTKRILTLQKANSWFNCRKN
Assay: not given
Type: tissue-based, Rheumatoid synovial fibroblasts
Settings: not given

Structure (SMILES)	IC50
CC(C)(Oc1ccc(CCNC(=O)c2ccc(Cl)cc2)cc1)C(=O)O [BEZAFIBRATE]	Not Active
CC(C)n1c(/C=C/C(O)CC(O)CC(=O)O)c(-c2ccc(F)cc2)c2ccccc21 (centres undefined) [FLUVASTATIN]	Not Active
CCCCOC(=O)c1ccc(N)cc1 [BUTAMBEN]	Not Active
Cc1ccccc1N1CCN(CCc2nnc3n2CCCC3)CC1 [DAPIPRAZOLE]	Not Active

Molecular target: Mitogen-activated protein kinase 1 (Homo sapiens, UniProt P28482)
Sequence (P28482 whole entry): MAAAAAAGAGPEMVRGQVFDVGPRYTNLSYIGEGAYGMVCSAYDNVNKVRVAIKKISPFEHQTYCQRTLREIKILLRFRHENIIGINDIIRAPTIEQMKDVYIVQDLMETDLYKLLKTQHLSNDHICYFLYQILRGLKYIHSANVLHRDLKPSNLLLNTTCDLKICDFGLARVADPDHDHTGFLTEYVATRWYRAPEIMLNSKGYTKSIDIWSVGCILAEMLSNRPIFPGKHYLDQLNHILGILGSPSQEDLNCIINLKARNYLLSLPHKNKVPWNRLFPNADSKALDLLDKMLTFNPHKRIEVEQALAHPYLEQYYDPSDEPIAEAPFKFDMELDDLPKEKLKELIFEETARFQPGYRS
Assay: DRUGMATRIX: Protein Serine/Threonine Kinase, ERK2 enzyme inhibition (substrate: Myelin Basic Protein)
Design: species or system Escherichia coli
Settings: Not Active = under 50% inhibition at 10 µM

Structure (SMILES)	IC50
CC(C)(Oc1ccc(CCNC(=O)c2ccc(Cl)cc2)cc1)C(=O)O [BEZAFIBRATE]	Not Active
CC(C)n1c(/C=C/C(O)CC(O)CC(=O)O)c(-c2ccc(F)cc2)c2ccccc21 (centres undefined) [FLUVASTATIN]	Not Active
CCCCOC(=O)c1ccc(N)cc1 [BUTAMBEN]	Not Active
Cc1ccccc1N1CCN(CCc2nnc3n2CCCC3)CC1 [DAPIPRAZOLE]	Not Active

Molecular target: T3, Alpha-1D adrenergic receptor (Homo sapiens, UniProt P25100); note: in other assays of this panel Not Active means under 50% inhibition at 10 µM
T3 sequence (P25100 whole entry): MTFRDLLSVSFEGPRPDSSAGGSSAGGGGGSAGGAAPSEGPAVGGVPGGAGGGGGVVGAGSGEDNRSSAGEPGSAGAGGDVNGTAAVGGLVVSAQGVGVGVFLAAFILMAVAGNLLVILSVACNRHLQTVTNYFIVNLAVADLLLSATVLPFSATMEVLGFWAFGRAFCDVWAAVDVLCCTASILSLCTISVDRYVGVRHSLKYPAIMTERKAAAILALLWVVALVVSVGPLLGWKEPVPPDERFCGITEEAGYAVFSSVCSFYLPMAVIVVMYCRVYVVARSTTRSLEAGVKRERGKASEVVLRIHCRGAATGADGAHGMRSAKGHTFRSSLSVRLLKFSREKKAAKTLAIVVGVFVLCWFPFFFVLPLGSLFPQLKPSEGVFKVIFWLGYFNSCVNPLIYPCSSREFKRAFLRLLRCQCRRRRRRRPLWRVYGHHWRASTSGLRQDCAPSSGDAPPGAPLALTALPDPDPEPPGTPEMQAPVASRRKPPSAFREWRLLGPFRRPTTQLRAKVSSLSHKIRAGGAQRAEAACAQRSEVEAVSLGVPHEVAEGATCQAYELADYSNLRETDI
Assay: not given
Type: cell membranes, HEK293, Membrane
Settings: hek293

Structure (SMILES)	IC50
CC(C)(Oc1ccc(CCNC(=O)c2ccc(Cl)cc2)cc1)C(=O)O [BEZAFIBRATE]	Not Active
CC(C)n1c(/C=C/C(O)CC(O)CC(=O)O)c(-c2ccc(F)cc2)c2ccccc21 (centres undefined) [FLUVASTATIN]	Not Active
CCCCOC(=O)c1ccc(N)cc1 [BUTAMBEN]	Not Active

Same assay, conditions: read-out: IC50

Structure (SMILES)	IC50 [nM]
Cc1ccccc1N1CCN(CCc2nnc3n2CCCC3)CC1 [DAPIPRAZOLE]	8.31

Same assay, conditions: read-out: Ki

Structure (SMILES)	Ki [nM]
Cc1ccccc1N1CCN(CCc2nnc3n2CCCC3)CC1 [DAPIPRAZOLE]	4.09

Test system: not listed separately
Assay: DRUGMATRIX: Phosphodiesterase PDE4 enzyme inhibition (substrate: [3H]cAMP + cAMP)
Settings: u-937; Not Active = under 50% inhibition at 10 µM

Structure (SMILES)	IC50	Ki
CC(C)(Oc1ccc(CCNC(=O)c2ccc(Cl)cc2)cc1)C(=O)O [BEZAFIBRATE]	Not Active	Not Active
CC(C)n1c(/C=C/C(O)CC(O)CC(=O)O)c(-c2ccc(F)cc2)c2ccccc21 (centres undefined) [FLUVASTATIN]	Not Active	Not Active
CCCCOC(=O)c1ccc(N)cc1 [BUTAMBEN]	Not Active	Not Active
Cc1ccccc1N1CCN(CCc2nnc3n2CCCC3)CC1 [DAPIPRAZOLE]	Not Active	Not Active

Molecular target: Prostaglandin G/H synthase 1 (Homo sapiens, UniProt P23219);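 note: inhibition of COX-1 enzyme activity, with arachidonic acid supplied as substrate; in other assays of this panel Not Active means under 50% inhibition at 10 µM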
Sequence (P23219 whole entry): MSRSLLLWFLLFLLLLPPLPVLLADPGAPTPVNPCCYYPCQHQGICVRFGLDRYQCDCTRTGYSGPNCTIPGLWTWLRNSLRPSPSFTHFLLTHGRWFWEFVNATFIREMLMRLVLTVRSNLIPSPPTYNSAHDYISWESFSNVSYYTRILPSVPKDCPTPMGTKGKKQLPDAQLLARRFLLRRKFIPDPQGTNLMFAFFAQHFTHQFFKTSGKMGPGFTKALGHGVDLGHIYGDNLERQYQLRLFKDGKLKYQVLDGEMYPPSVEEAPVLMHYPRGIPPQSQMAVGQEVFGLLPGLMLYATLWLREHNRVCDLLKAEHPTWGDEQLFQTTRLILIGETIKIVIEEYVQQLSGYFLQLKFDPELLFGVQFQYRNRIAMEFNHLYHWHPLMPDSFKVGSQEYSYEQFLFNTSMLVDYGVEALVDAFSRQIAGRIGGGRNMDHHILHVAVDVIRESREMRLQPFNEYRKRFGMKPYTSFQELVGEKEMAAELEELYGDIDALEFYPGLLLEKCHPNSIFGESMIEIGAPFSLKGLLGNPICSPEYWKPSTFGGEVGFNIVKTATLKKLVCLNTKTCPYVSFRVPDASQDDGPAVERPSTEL
Assay: biochemical
Type: tissue-based, Platelet
Settings: platelet

Structure (SMILES)	IC50
CC(C)(Oc1ccc(CCNC(=O)c2ccc(Cl)cc2)cc1)C(=O)O [BEZAFIBRATE]	Not Active
CC(C)n1c(/C=C/C(O)CC(O)CC(=O)O)c(-c2ccc(F)cc2)c2ccccc21 (centres undefined) [FLUVASTATIN]	Not Active
CCCCOC(=O)c1ccc(N)cc1 [BUTAMBEN]	Not Active
Cc1ccccc1N1CCN(CCc2nnc3n2CCCC3)CC1 [DAPIPRAZOLE]	Not Active

Test system: not listed separately
Assay: DRUGMATRIX: Calcium Channel Type L, Phenylalkylamine radioligand binding (ligand: [3H] (-)-Desmethoxyverapamil (D-888))
Type: cell membranes, Rattus norvegicus, Wistar, Brain, Membrane
Settings: Not Active = under 50% inhibition at 10 µM

Structure (SMILES)	IC50	Ki
CC(C)(Oc1ccc(CCNC(=O)c2ccc(Cl)cc2)cc1)C(=O)O [BEZAFIBRATE]	Not Active	Not Active
CC(C)n1c(/C=C/C(O)CC(O)CC(=O)O)c(-c2ccc(F)cc2)c2ccccc21 (centres undefined) [FLUVASTATIN]	Not Active	Not Active
CCCCOC(=O)c1ccc(N)cc1 [BUTAMBEN]	Not Active	Not Active
Cc1ccccc1N1CCN(CCc2nnc3n2CCCC3)CC1 [DAPIPRAZOLE]	Not Active	Not Active

Test system: not listed separately
Assay: DRUGMATRIX: Glutamate, NMDA, Agonism radioligand binding (ligand: [3H] CGP-39653)
Type: cell membranes, Rattus norvegicus, Wistar, Cerebral cortex, Membrane
Settings: Not Active = under 50% inhibition at 10 µM

Structure (SMILES)	IC50	Ki
CC(C)(Oc1ccc(CCNC(=O)c2ccc(Cl)cc2)cc1)C(=O)O [BEZAFIBRATE]	Not Active	Not Active
CC(C)n1c(/C=C/C(O)CC(O)CC(=O)O)c(-c2ccc(F)cc2)c2ccccc21 (centres undefined) [FLUVASTATIN]	Not Active	Not Active
CCCCOC(=O)c1ccc(N)cc1 [BUTAMBEN]	Not Active	Not Active
Cc1ccccc1N1CCN(CCc2nnc3n2CCCC3)CC1 [DAPIPRAZOLE]	Not Active	Not Active

Molecular target: Melanocortin receptor 3 (Homo sapiens, UniProt P41968); note: in other assays of this panel Not Active means under 50% inhibition at 10 µM
Sequence (P41968 whole entry): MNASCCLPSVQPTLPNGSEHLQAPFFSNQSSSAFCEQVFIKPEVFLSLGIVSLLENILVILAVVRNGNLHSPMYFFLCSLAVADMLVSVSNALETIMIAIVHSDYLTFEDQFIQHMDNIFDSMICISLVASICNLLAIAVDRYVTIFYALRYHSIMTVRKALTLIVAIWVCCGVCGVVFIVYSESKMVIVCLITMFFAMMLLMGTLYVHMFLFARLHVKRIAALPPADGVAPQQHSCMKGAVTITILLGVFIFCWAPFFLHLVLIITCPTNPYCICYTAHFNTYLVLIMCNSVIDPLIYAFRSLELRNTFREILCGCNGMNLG
Assay: not given
Type: cell membranes, Membrane
Settings: hek293

Structure (SMILES)	IC50
CC(C)(Oc1ccc(CCNC(=O)c2ccc(Cl)cc2)cc1)C(=O)O [BEZAFIBRATE]	Not Active
CC(C)n1c(/C=C/C(O)CC(O)CC(=O)O)c(-c2ccc(F)cc2)c2ccccc21 (centres undefined) [FLUVASTATIN]	Not Active
CCCCOC(=O)c1ccc(N)cc1 [BUTAMBEN]	Not Active
Cc1ccccc1N1CCN(CCc2nnc3n2CCCC3)CC1 [DAPIPRAZOLE]	Not Active

Molecular target: T4, Adenosine receptor A1 (Homo sapiens, UniProt P30542)
T4 sequence (P30542 whole entry): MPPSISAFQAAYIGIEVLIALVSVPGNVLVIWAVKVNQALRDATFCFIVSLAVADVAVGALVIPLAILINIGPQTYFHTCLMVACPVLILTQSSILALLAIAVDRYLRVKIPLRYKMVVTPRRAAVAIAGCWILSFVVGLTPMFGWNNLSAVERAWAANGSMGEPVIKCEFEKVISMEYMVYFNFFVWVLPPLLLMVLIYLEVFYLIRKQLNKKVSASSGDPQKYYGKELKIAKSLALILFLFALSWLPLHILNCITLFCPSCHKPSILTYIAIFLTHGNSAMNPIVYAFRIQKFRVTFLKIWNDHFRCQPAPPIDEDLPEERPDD
Assay: not given
Type: cell membranes, CHO, Membrane
Settings: cho

Structure (SMILES)	IC50
CC(C)(Oc1ccc(CCNC(=O)c2ccc(Cl)cc2)cc1)C(=O)O [BEZAFIBRATE]	Not Active
CC(C)n1c(/C=C/C(O)CC(O)CC(=O)O)c(-c2ccc(F)cc2)c2ccccc21 (centres undefined) [FLUVASTATIN]	Not Active
CCCCOC(=O)c1ccc(N)cc1 [BUTAMBEN]	Not Active
Cc1ccccc1N1CCN(CCc2nnc3n2CCCC3)CC1 [DAPIPRAZOLE]	Not Active

Molecular target: D(3) dopamine receptor (Homo sapiens, UniProt P35462)
Sequence (P35462 whole entry): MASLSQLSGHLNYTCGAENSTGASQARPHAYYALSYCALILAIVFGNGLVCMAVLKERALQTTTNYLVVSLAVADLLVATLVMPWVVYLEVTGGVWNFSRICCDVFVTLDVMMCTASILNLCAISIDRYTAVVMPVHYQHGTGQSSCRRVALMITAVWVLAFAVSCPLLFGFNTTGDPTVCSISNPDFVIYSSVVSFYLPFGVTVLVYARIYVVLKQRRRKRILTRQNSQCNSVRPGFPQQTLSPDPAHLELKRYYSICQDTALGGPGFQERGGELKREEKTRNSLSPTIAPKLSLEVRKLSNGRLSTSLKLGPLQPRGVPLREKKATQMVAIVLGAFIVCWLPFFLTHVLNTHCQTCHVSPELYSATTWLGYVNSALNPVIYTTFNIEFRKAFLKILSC
Assay: DRUGMATRIX: Dopamine D3 radioligand binding (ligand: [3H] Spiperone)
Type: cell membranes, CHO, Membrane
Settings: cho

Structure (SMILES)	IC50
CC(C)(Oc1ccc(CCNC(=O)c2ccc(Cl)cc2)cc1)C(=O)O [BEZAFIBRATE]	Not Active
CC(C)n1c(/C=C/C(O)CC(O)CC(=O)O)c(-c2ccc(F)cc2)c2ccccc21 (centres undefined) [FLUVASTATIN]	Not Active
CCCCOC(=O)c1ccc(N)cc1 [BUTAMBEN]	Not Active
Cc1ccccc1N1CCN(CCc2nnc3n2CCCC3)CC1 [DAPIPRAZOLE]	Not Active

Molecular target: Platelet-activating factor receptor (Homo sapiens, UniProt P25105); note: in other assays of this panel Not Active means under 50% inhibition at 10 µM
Sequence (P25105 whole entry): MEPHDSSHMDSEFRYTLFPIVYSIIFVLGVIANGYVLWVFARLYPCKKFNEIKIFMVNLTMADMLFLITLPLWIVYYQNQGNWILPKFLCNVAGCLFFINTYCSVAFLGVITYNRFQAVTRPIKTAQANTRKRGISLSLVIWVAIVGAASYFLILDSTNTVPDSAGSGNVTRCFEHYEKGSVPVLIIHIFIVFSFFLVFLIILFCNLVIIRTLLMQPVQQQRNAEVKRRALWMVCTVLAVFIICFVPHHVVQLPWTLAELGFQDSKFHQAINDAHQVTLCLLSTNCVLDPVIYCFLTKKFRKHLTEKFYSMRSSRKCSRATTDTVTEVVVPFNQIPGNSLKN
Assay: biochemical
Type: tissue-based
Settings: platelet

Structure (SMILES)	IC50
CC(C)(Oc1ccc(CCNC(=O)c2ccc(Cl)cc2)cc1)C(=O)O [BEZAFIBRATE]	Not Active
CC(C)n1c(/C=C/C(O)CC(O)CC(=O)O)c(-c2ccc(F)cc2)c2ccccc21 (centres undefined) [FLUVASTATIN]	Not Active
CCCCOC(=O)c1ccc(N)cc1 [BUTAMBEN]	Not Active
Cc1ccccc1N1CCN(CCc2nnc3n2CCCC3)CC1 [DAPIPRAZOLE]	Not Active
